The source of these data is patent publication US12275729B2 (Merck Sharp & Dohme LLC, priority 2017, dated 2025).

By IC50 is commonly meant the concentration that gives 50% inhibition.

The target of test [1] is T1, IDO1 (Homo sapiens, UniProt P14902). Briefly: IDO1 Cellular Assay in HeLa Cells Stimulated with IFNγ. It counts as cell-based. The following applies: read-out: Hela IC50.
Test [2] addresses T1, IDO1. Kind of test: IDO1 Human Whole Blood Assay. Type of test: cell-based. Also noted: Human whole blood was drawn in sodium heparin coated tubes from healthy internal donors; from tissue; host or cells: human whole blood from healthy donors, stimulated with LPS and IFNγ. The following applies: LPS and IFNγ stimulated.

T1 sequence (P14902 whole entry): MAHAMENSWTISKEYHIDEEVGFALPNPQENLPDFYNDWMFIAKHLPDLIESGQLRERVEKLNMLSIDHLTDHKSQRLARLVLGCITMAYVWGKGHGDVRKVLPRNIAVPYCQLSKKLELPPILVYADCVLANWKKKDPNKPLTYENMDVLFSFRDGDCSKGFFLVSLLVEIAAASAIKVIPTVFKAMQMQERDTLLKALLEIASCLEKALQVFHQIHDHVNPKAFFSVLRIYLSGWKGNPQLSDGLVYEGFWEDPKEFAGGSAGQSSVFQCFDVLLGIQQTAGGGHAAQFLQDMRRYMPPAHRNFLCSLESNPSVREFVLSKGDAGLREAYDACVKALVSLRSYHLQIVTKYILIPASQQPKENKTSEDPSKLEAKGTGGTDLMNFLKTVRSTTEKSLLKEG

With `Cc1nccc(N2CCCc3nc(C4(C(=O)Nc5ccc(F)cc5)CC(OCc5ccccc5)C4)ccc32)n1` (centres unmarked) [Example 423, 2-(3-(benzyloxy)-1-((4-fluorophenyl)carbamoyl)cyclobutyl)-5-(2-methylpyrimidin-4-yl)-5,6,7,8-tetrahydro-1,5-naphthyridin-1-ium 2,2,2-trifluoroacetate], the results for the IC50 in test [1], in test [1] (value in running text) and in test [2] were 6.84 nM, 6.8 nM and 26 nM, respectively.
As to `Cc1nccc(N2CCCc3nc(C4(NC(=O)c5ccc(Br)cc5)CC4)ccc32)n1` [Example 301, 4-bromo-N-(1-(5-(2-methylpyrimidin-4-yl)-5,6,7,8-tetrahydro-1,5-naphthyridin-2-yl)cyclopropyl)benzamide], the values for the IC50 in test [1] (about 48 hours) and in test [2] were 1.69 nM and 21 nM, respectively.
In the case of `CC(C)CC(=O)N1CCCc2cc([C@@H](C)NC(=O)c3ccc(Cl)cc3)ccc21` (racemic) [Example 28, 4-chloro-N-{(1R)-1-[1-(3-methyl-butanoyl)-1,2,3,4-tetrahydroquinolin-6-yl]ethyl}benzamide], the half-maximal inhibitory concentration (IC50) in test [1] (about 48 hours) is 3.8 nM; in test [2] it was 33 nM.
`O=C(OC1CC1)N1CCCc2nc(C3(C(=O)Nc4ccc(F)cc4)CCC3)ccc21` [Example 410, cyclopropyl 6-(1-((4-fluorophenyl)carbamoyl)cyclobutyl)-3,4-dihydro-1,5-naphthyridine-1(2H)-carboxylate]: the concentration for half-maximal inhibition (IC50) came to 0.79 nM in test [1] and 70 nM in test [2].
With `CC(C(=O)Nc1ccc(F)cc1)c1ccc2c(n1)CCCN2C(=O)C1CCCO1` (stereo in doubt) [Example 162, N-(4-fluorophenyl)-2-{5-[(2R)-oxolane-2-carbonyl]-5,6,7,8-tetrahydro-1,5-naphthyridin-2-yl}propanamide], the IC50 in test [1] (about 48 hours) is 2.7 nM; in test [2] it was 29 nM.
Regarding `Cc1cncc(N2CCCc3nc(C4(NC(=O)c5ccc(F)cc5)CC4)ccc32)n1` [Example 296, 4-fluoro-N-(1-(5-(6-methylpyrazin-2-yl)-5,6,7,8-tetrahydro-1,5-naphthyridin-2-yl)cyclopropyl)benzamide], the figures for the half-maximal inhibitory concentration (IC50) in test [1] (about 48 hours) and in test [2] were 1.51 nM and 163 nM, respectively.
The corresponding values for `Cc1nccc(N2CCCc3nc(C4(C(=O)Nc5ccc(F)cc5)COC4)ccc32)n1` [Example 395, N-(4-fluorophenyl)-3-(5-(2-methylpyrimidin-4-yl)-5,6,7,8-tetrahydro-1,5-naphthyridin-2-yl)oxetane-3-carboxamide] are 1.23 nM and 26 nM.
For `Cc1ccnc(C(=O)N2CCCc3nc(C4(C(=O)Nc5ccc(Cl)cc5)COC4)ccc32)n1` [Example 399, N-(4-chlorophenyl)-3-(5-(4-methylpyrimidine-2-carbonyl)-5,6,7,8-tetrahydro-1,5-naphthyridin-2-yl)oxetane-3-carboxamide], in that order: 1.72 nM and 13 nM.
As for `CCn1ccc(N2CCCc3cc(C4(C(=O)Nc5ccc(F)cn5)CCC4)ccc32)n1` [Example 232, 1-[1-(1-ethyl-H-pyrazol-3-yl)-1,2,3,4-tetrahydroquinolin-6-yl]-N-(5-fluoropyridin-2-yl)cyclobutane-1l-carboxamide], the results for the IC50 in test [1] (about 48 hours) and in test [2] were 5.4 nM and 557 nM, respectively.
With `Cc1ncc(N2CCCc3nc(C(C)NC(=O)c4ccc(Cl)cc4)ccc32)s1` (centres unmarked) [Example 356, 4-chloro-N-(1-(5-(2-methylthiazol-5-yl)-5,6,7,8-tetrahydro-1,5-naphthyridin-2-yl)ethyl)benzamide], the values for the half-inhibitory concentration (IC50) in test [1] and in test [2] were 13 nM and 167 nM, respectively.
The corresponding values for `COC[C@H](C)OC(=O)N1CCCc2nc(C(C)NC(=O)c3ccc(Cl)cc3)ccc21` (stereo partly drawn) [Example 330, (S)-1-methoxypropan-2-yl 6-(1-(4-chlorobenzamido)ethyl)-3,4-dihydro-1,5-naphthyridine-1(2H)-carboxylate] are 1.1 nM and 4950 nM.
